Source: US5304687A, “Morpholinyl derivatives of doxorubicin and process for their preparation” (priority 1989, dated 1994)
Converted amounts (≈) assume the structure as drawn. Like-named read-outs stand apart in the source and are kept apart here.

Legend:
[1] = system: Doxorubicin-resistant P38B Schabel's Leukemia; experiment: in vivo; settings: BDF1 mice, P388/Dx Schabel (10^2 cell/mouse), iv on day 1, at O.D.
Excerpt: (§1) ^c O.D. = Optimal Dose: maximally tollerated dose.
(§2) ^d T/C % = Median survival time of treated mice over median survival
(§3) time of controls × 100.

in vivo [2] = settings: mouse, in vivo, iv
Excerpt: as §1, §2, §3

murine mammary carcinoma = experiment: Effect on murine mammary carcinoma, iv and oral route; format: in vivo; settings: for Tumor Inhibition %: at O.D.
Excerpt: as §1
(§4) Effect of A4 on murine mammary carcinoma.
(§5) ^f iv q4dx4 = treatment iv every four days for four times
(§6) ^g po q4dx4 = oral treatment every four days for four times

[3] = as above; format: in vivo; settings: mouse, in vivo, read-out: O.D. = Optimal Dose: maximally tollerated dose
Excerpt: as §1, §4, §5, §6

LoVo/Dx resistant cells = experiment: cells; format: cell-based; settings: for IC50: read-out: IC50 (concentration inhibiting 50% of colony growth), LoVo/Dx; for R.I. = Resistance Index = (IC50 LoVo/Dx)/(IC50 LoVo): LoVo/Dx vs LoVo
Excerpt: (§7) Colony assay test against LoVo and LoVo/Dx resistant cells
(§8) "in vitro" (treatment for 4 hrs)
(§9) ^a IC50 = concentration inhibiting 50% of colony growth
^b R.I. = Resistance Index = (IC50 LoVo/Dx)/(IC50 LoVo)

[4] = system: Doxorubicin-resistant P388 Johnson's Leukemia (P388/Dx); experiment: in vivo; settings: BDF1 mice bearing P388/Dx Johnson (10^2 cell/mouse), iv on day 1, at O.D.
Procedure: (§10) The primary screening "in vivo" was carried out in BDF1 mice bearing P388 Doxorubicin-resistant Johnson's leukemia (P388/Dx) (10^2 cell/mouse). The drugs were administered iv on day 1 after tumor inoculation.
as §1, §2, §3

in vivo [5] = settings: mouse, in vivo, iv; remark: listed apart in the source
Procedure: as §10, §1, §2, §3

[6] = system: mammary human carcinoma (MX1); experiment: Effect on mammary human carcinoma (MX1), iv and oral route; format: in vivo; settings: at O.D.
Excerpt: as §1
(§11) Effect of A4 on mammary human carcinoma (MX1).
(§12) ^h iv q7dx3 = treatment iv every seven days for three times
(§13) ^i po q7dx3 = oral treatment every seven days for three times

[7] = as above; format: in vivo; settings: in vivo, read-out: O.D. = Optimal Dose: maximally tollerated dose
Excerpt: as §1, §11, §12, §13

[8] = system: Doxorubicin-resistant P388 Leukemia (Schabel) (P388/Dx); experiment: Effect on Doxorubicin-resistant P388 leukemia (Schabel) in vitro (treatment 1 hr); format: cell-based; settings: read-out: IC50 (concentration inhibiting 50% of cellular survival), P388/Dx
Excerpt: (§14) Effect of A4 on sensitive and Doxorubicin-resistant P388
(§15) Leukemia (Schabel) "in vitro" (treatment 1 hr).
(§16) ^c IC50 = concentration inhibiting 50% of cellular survival.

LoVo = experiment: Colony assay test against LoVo cells in vitro (treatment for 4 hrs); format: cell-based; settings: Homo sapiens, read-out: IC50 (concentration inhibiting 50% of colony growth), LoVo
Excerpt: The compounds have been tested in several experimental system in order to ascertain their cytotoxicity and antitumor activity in experimental animals in comparison with parent Doxorubicin. The new anthracyclines result more cytotoxic than the parent drug on LoVo and LoVo Doxorubicin-resistant cell line (LoVo/Dx), Table 1, and are active "in vivo" against doxorubicin-resistant cell lines.
as §7, §8, §9

P388 Leukemia (Schabel) = experiment: Effect on sensitive P388 leukemia (Schabel) in vitro (treatment 1 hr); format: cell-based; settings: Mus musculus, read-out: IC50 (concentration inhibiting 50% of cellular survival), P388
Excerpt: as §14, §15, §16

[9] = iv q4dx4 (iv every four days for four times)
[10] = po q4dx4 (oral every four days for four times)
[11] = iv q7dx3 (iv every seven days for three times)
[12] = po q7dx3 (oral every seven days for three times)

| SMILES | T/C % = median survival time of treated mice over median survival time of controls × 100 [1] [%] | Tumor Inhibition % (murine mammary carcinoma; [9]) [%] | IC50 (LoVo/Dx resistant cells; LoVo/DX, 4 h) [mg/L] | R.I. = Resistance Index = (IC50 LoVo/Dx)/(IC50 LoVo) (LoVo/Dx resistant cells; treatment for 4 hrs) | T/C % = median survival time of treated mice over median survival time of controls × 100 [4] [%] | MTD (in vivo [5]) [mg/kg] | Tumor Inhibition % [6, 11] [%] | MTD [7, 11] [mg/kg] | IC50 (LoVo; 4 h) [mg/L] | other results |
| --- | --- | --- | --- | --- | --- | --- | --- | --- | --- | --- |
| COc1cccc2c1C(=O)c1c(O)c3c(c(O)c1C2=O)C[C@@](O)(C(=O)CO)C[C@@H]3O[C@H]1C[C@H](N2CCO[C@H](OC)C2)[C@H](O)[C@H](C)O1 [Compound A4, 3'-deamino-3'-(2"(S)-methoxy-4"-morpholinyl)-doxorubicin] | 153 | 94 | 0.0317 (≈ 0.0493 µM) | 3.6 | 250 | 0.09 | 98 | 0.05 | 0.0087 (≈ 0.0135 µM) | MTD (in vivo [2]): 0.09 mg/kg; Tumor Inhibition % (murine mammary carcinoma; [10]): 97%; MTD [3, 9]: 0.065 mg/kg; MTD [3, 10]: 0.1 mg/kg; Tumor Inhibition % [6, 12]: 99%; MTD [7, 12]: 0.13 mg/kg; IC50 ([8]; P388/DX, 1 h): 0.0243 mg/L (≈ 0.0378 µM); IC50 (P388 Leukemia (Schabel); P388, 1 h): 0.0076 mg/L (≈ 0.0118 µM) |
| COc1cccc2c1C(=O)c1c(O)c3c(c(O)c1C2=O)C[C@@](O)(C(=O)CO)C[C@@H]3O[C@H]1C[C@H](N2CCO[C@@H](OC)C2)[C@H](O)[C@H](C)O1 [Compound A5, 3'-deamino-3'-(2"(R)-methoxy-4"-morpholinyl)-doxorubicin] | – | – | 0.0401 (≈ 0.0623 µM) | 6.1 | 244 | 0.13 | – | – | 0.0065 (≈ 0.0101 µM) | – |
| COc1cccc2c1C(=O)c1c(O)c3c(c(O)c1C2=O)C[C@@](O)(C(=O)CO)C[C@@H]3O[C@H]1C[C@H](N)[C@H](O)[C@H](C)O1 [Doxorubicin, doxorubicin] | 100 | 99 | – | 52.6 | 86 | – | 72 | 6 | – | O.D. = Optimal Dose: maximally tollerated dose (murine mammary carcinoma; [9]): 5.85 mg/kg; IC50 (LoVo/Dx resistant cells; LoVo/Dx, in vitro, treatment for 4 hrs): 2.55 mg/L (≈ 4.7 µM); IC50 ([8]; P388/Dx (Schabel), in vitro, treatment 1 hr): 4 mg/L (≈ 7.36 µM); IC50 (LoVo; in vitro, treatment for 4 hrs): 0.0488 mg/L (≈ 0.0898 µM); IC50 (P388 Leukemia (Schabel); sensitive P388 (Schabel), in vitro, treatment 1 hr): 0.0527 mg/L (≈ 0.097 µM) |
